Measured values: patent US20170073337A1, “DIHYDROTHIAZINE AND DIHYDROOXAZINE DERIVATIVES HAVING BACE1 INHIBITORY ACTIVITY” (Shionogi & Co., Ltd., priority 2014, published 2017)
Values after ≈ are worked out from the molar mass of the structure shown. Like-named read-outs stand apart in the source and are kept apart here.

Assays:
[1] = target: T1, CYP1A2 (Homo sapiens, UniProt P05177); assay: CYP inhibition test (CYP1A2); format: in vitro ADME; conditions: pooled human liver microsomes; 7-ethoxyresorufin O-deethylation
T1 construct: The commercially available pooled human liver microsomes are used as an enzyme resource; from tissue; host or cells: pooled human liver microsomes
T1 sequence (P05177 1-516): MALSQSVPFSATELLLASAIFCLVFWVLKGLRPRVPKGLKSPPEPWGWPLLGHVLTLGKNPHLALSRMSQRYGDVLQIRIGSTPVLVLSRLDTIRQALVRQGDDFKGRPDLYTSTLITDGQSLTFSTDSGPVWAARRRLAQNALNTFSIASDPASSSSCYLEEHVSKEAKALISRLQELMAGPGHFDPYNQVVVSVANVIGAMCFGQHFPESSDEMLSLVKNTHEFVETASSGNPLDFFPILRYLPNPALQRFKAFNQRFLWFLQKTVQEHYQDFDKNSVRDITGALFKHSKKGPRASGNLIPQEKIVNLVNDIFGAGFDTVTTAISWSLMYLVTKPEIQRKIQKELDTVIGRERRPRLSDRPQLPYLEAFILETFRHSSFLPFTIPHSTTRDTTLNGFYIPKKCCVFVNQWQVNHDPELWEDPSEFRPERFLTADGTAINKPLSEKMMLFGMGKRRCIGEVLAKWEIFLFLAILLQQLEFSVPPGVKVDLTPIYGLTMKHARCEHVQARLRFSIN
Procedure, shortened: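 Inhibition of CYP1A2 was measured in commercially available pooled human liver microsomes (0.2 mg protein/mL) using 7-ethoxyresorufin O-deethylation with 0.5 μmol/L ethoxyresorufin. Test compound at 1, 5, 10, 20 μmol/L in […] Hepes buffer was incubated at 37° C. after NADPH addition; methanol/acetonitrile=1/1 (v/v) stopped the reaction, and resorufin was read fluorescently.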

[2] = target: T2, CYP3A4 (Homo sapiens, UniProt P08684); assay: CYP inhibition test (CYP3A4); format: in vitro ADME; conditions: pooled human liver microsomes; terfenadine hydroxylation
T2 construct: The commercially available pooled human liver microsomes are used as an enzyme resource; from tissue; host or cells: pooled human liver microsomes
T2 sequence (P08684 whole entry): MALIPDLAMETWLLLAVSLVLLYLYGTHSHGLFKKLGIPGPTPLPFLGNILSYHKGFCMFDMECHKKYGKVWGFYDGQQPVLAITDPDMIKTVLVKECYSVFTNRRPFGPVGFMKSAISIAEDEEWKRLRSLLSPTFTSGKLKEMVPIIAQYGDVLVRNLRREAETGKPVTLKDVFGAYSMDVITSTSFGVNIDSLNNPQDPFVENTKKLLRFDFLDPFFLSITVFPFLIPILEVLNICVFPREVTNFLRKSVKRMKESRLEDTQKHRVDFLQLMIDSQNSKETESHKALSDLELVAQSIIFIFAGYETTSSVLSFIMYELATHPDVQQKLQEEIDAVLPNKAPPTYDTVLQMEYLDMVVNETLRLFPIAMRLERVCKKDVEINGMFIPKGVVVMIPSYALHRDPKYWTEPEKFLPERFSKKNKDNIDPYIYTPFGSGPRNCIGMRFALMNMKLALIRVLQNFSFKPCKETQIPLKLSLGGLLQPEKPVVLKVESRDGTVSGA
Procedure, shortened: (§1)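 Pooled human liver microsomes (0.2 mg protein/mL) with compound at 1, 5, 10 and 20 μmol/L and NADPH, at 37 °C. Marker substrates: dextromethorphan 5 μmol/L (2D6), terfenadine 1 μmol/L (3A4), S-mephenytoin 50 μmol/L (2C19), tolbutamide 100 μmol/L (2C9). Metabolites were measured by LC/MS/MS, and IC50 was derived by logistic fit of remaining activity against the DMSO control.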

[3] = Solubility test; format: physicochemical
Procedure, shortened: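 Dissolved concentration determined by LC/MS or SPE/MS (absolute calibration) in diluted filtrates, after 2 μL of 10 mmol/L DMSO stock was added to 198 μL JP 1st or JP 2nd fluid and equilibrated either 1 h with shaking at room temperature or 16 h standing at 25 °C.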

[4] = Metabolic stability test; format: in vitro ADME; conditions: human liver microsomes, 37° C., 30 minutes, NADPH
Procedure, shortened: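 Parent compound was measured by LC/MS/MS or SPE/MS after a methanol/acetonitrile quench and reported as % remaining, with the 0 min sample set to 100%. Incubations ran 30 min at 37 °C in pH 7.4 Tris buffer containing pooled human liver microsomes at 0.5 mg protein/mL and 1 mmol/L NADPH.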

[5] = target: T3, CYP2C19 (Homo sapiens, UniProt P33261); assay: CYP inhibition test (CYP2C19); format: in vitro ADME; conditions: pooled human liver microsomes; mephenytoin 4′-hydroxylation
T3 construct: The commercially available pooled human liver microsomes are used as an enzyme resource; from tissue; host or cells: pooled human liver microsomes
T3 sequence (P33261 whole entry): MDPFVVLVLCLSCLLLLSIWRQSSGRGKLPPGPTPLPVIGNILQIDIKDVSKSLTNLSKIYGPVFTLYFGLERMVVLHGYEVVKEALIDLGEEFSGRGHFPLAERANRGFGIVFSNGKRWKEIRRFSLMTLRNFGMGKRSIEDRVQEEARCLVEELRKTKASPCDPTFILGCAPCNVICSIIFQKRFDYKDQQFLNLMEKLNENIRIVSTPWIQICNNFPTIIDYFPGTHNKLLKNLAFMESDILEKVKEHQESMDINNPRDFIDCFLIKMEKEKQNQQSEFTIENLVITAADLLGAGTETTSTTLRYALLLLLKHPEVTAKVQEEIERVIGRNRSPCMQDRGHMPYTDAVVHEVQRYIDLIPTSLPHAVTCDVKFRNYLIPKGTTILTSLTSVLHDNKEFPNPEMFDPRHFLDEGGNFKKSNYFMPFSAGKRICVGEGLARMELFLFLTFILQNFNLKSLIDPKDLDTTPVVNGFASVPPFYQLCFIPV
Procedure, shortened: as §1

[6] = target: T4, human ether-a-go-go related gene (hERG) channel (Homo sapiens, UniProt Q12809); assay: hERG test; format: cell-based; conditions: % inhibition of IKr tail peak current at 3 uM; CHO cells expressing hERG
T4 construct: expressed in transfected cells; host or cells: CHO cells
T4 sequence (Q12809 whole entry): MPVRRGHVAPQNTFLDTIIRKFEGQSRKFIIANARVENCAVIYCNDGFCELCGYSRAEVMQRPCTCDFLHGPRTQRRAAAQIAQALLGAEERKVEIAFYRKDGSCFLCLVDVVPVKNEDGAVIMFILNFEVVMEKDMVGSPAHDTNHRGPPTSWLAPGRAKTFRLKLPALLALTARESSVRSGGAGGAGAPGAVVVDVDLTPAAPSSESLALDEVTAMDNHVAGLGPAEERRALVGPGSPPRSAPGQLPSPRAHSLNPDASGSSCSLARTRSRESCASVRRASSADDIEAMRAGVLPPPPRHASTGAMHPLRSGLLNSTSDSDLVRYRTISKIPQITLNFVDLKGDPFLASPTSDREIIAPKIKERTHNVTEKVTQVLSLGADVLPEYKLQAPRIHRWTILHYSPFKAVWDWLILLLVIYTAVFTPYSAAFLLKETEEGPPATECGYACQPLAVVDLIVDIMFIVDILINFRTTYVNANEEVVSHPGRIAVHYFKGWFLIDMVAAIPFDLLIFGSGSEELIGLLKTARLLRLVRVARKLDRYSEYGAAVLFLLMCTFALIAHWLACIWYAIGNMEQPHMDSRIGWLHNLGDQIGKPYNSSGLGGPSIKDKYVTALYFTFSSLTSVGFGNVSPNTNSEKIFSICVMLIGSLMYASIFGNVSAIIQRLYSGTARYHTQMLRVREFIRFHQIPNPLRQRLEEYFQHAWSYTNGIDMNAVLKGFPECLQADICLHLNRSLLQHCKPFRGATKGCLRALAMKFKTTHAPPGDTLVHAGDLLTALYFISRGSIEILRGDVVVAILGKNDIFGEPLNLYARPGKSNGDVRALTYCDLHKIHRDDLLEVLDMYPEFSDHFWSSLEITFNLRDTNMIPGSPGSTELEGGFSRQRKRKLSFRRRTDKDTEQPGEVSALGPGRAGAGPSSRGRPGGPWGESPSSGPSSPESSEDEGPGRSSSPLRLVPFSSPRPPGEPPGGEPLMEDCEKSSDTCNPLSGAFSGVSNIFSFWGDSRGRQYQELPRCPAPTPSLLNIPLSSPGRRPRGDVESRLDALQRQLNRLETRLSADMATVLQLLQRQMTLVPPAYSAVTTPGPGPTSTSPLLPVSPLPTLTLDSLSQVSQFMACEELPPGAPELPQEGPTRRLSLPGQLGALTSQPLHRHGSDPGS
Procedure, shortened: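 Automated whole-cell patch clamp was run on CHO cells carrying human hERG, held at −80 mV. Current was recorded during the −50 mV repolarization (2 s) that followed a 2 s +20 mV step, after a −50 mV leak pulse.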

[7] = JP 1st fluid, 25 °C, pH 1.2, simulated gastric fluid, kinetic from dmso stock, read-out: JP1
[8] = JP 2nd fluid A, 25 °C, pH 6.8, aqueous buffer, kinetic from dmso stock, read-out: JP2_μM
[9] = JP 1st fluid, pH 1.2, simulated gastric fluid, kinetic from dmso stock, read-out: JP1
[10] = JP 2nd fluid A, pH 6.8, aqueous buffer, kinetic from dmso stock, read-out: JP2_μM
[11] = solubility in JP 2nd fluid B, 1% DMSO, *2: shaken for 1 hour at room temperature, read-out: JP2_μM
[12] = JP 2nd fluid B, pH 6.8, aqueous buffer, kinetic from dmso stock, read-out: JP2_μM

| SMILES | IC50 [1] | IC50 [2] | solubility kinetic at 16 h [3, 7] | solubility kinetic at 16 h [3, 8] | remaining % [4] | IC50 [5] | solubility kinetic at 1 h [3, 9] | solubility kinetic at 1 h [3, 10] | solubility kinetic at 16 h [3, 11] | solubility kinetic at 1 h [3, 12] | hERG_3 uM_% [6] |
| --- | --- | --- | --- | --- | --- | --- | --- | --- | --- | --- | --- |
| COc1cnc(C(=O)Nc2ccc(F)c([C@@]3(C)N=C(N)S[C@H](C)[C@@H]3F)c2)cn1 [Compound I-8] | ≥ 20 µM | ≥ 20 µM | 46.4 µM (≈ 18.9 µg/mL) | > 50 µM | – | ≥ 20 µM | – | – | – | – | 16.7% |
| C[C@H]1[C@@H](C(F)(F)F)OC(N)=N[C@]1(C)c1cc(NC(=O)c2ccc(C#N)cn2)ccc1F [Compound I-28] | ≥ 20 µM | ≥ 20 µM | 40.4 µM (≈ 17.6 µg/mL) | > 50 µM | – | ≥ 20 µM | – | – | – | – | 36.2% |
| C[C@H]1SC(N)=N[C@](C)(c2cc(NC(=O)c3cnc(OCC(F)(F)F)cn3)ccc2F)[C@H]1F [Compound I-46] | ≥ 20 µM | – | – | – | 97.8% | ≥ 20 µM | > 50 µM | 8.3 µM (≈ 3.95 µg/mL) | – | – | 33.4% |
| C[C@H]1SC(N)=N[C@](C)(c2cc(NC(=O)c3cnc(OCC(F)F)cn3)ccc2F)[C@H]1F [Compound I-48] | ≥ 20 µM | ≥ 20 µM | – | – | 92.9% | ≥ 20 µM | > 50 µM | 39.5 µM (≈ 18.1 µg/mL) | – | – | – |
| C[C@]1(c2cc(NC(=O)c3ccc(C#N)cn3)ccc2F)N=C(N)SCC12CC(F)(F)C2 [Compound I-59] | ≥ 20 µM | – | – | – | 66.8% | ≥ 20 µM | > 50 µM | – | >50 µM | – | – |
| C[C@H]1SC(N)=N[C@](C)(c2cc(NC(=O)c3ccc(F)cn3)ccc2F)C12CC(F)(F)C2 [Compound I-63] | ≥ 20 µM | – | – | – | 75.8% | ≥ 20 µM | > 50 µM | – | >50 µM | – | 53.2% |
| CC#CCOc1cnc(C(=O)Nc2ccc(F)c([C@@]3(C)N=C(N)O[C@H](C(C)(F)F)[C@@H]3F)c2)cn1 [Compound I-76] | ≥ 20 µM | – | – | – | – | ≥ 10 µM | > 50 µM | – | – | 8.2 µM (≈ 3.93 µg/mL) | 5.8% |
| C[C@]1(c2cc(NC(=O)c3ccc(C#N)cn3)ccc2F)N=C(N)O[C@H](C2(F)CC2)[C@@H]1F [Compound I-96] | ≥ 20 µM | ≥ 20 µM | – | – | 101% | ≥ 20 µM | 45.8 µM (≈ 19.7 µg/mL) | – | – | > 50 µM | – |
| C[C@]1(c2cc(NC(=O)c3ccc(OCF)cn3)ccc2F)N=C(N)O[C@H](C2(F)CC2)[C@@H]1F [Compound I-101] | ≥ 20 µM | ≥ 20 µM | – | – | 91.8% | ≥ 20 µM | > 50 µM | – | >50.0 µM | – | – |
| COc1cnc(C(=O)Nc2cccc([C@@]3(C)N=C(N)S[C@H](C)[C@@H]3F)c2)cn1 [Compound I-103] | ≥ 20 µM | ≥ 20 µM | – | – | 78.3% | ≥ 20 µM | 49.4 µM (≈ 19.2 µg/mL) | – | – | > 50 µM | – |
| C[C@H]1SC(N)=N[C@](C)(c2cccc(NC(=O)c3cnc(OCF)cn3)c2)[C@H]1F [Compound I-104] | ≥ 20 µM | ≥ 20 µM | – | – | 77.7% | ≥ 20 µM | 40.6 µM (≈ 16.5 µg/mL) | – | – | > 50 µM | – |

Further lines, with some results ahead:

| IC50 [1] | IC50 [2] | solubility kinetic at 16 h [3, 7] | solubility kinetic at 16 h [3, 8] | remaining % [4] | IC50 [5] | solubility kinetic at 1 h [3, 9] | solubility kinetic at 1 h [3, 10] | solubility kinetic at 16 h [3, 11] | solubility kinetic at 1 h [3, 12] | SMILES | hERG_3 uM_% [6] |
| --- | --- | --- | --- | --- | --- | --- | --- | --- | --- | --- | --- |
| ≥ 20 µM | ≥ 20 µM | > 50 µM | > 50 µM | 82.4% | ≥ 20 µM | – | – | – | – | C[C@H]1SC(N)=N[C@](C)(c2nc(NC(=O)c3ccc(C#N)cn3)ccc2F)[C@H]1F [Compound I-1] | – |
| ≥ 20 µM | ≥ 20 µM | 35.8 µM (≈ 15.1 µg/mL) | > 50 µM | – | ≥ 20 µM | – | – | – | – | C[C@]1(c2nc(NC(=O)c3ccc(C#N)cn3)ccc2F)N=C(N)S[C@H](CF)[C@@H]1F [Compound I-4] | 47.9% |
| – | – | > 50 µM | > 50 µM | 82% | – | – | – | – | – | C[C@@]1(c2cc(NC(=O)c3ccc(C#N)cn3)ccc2F)C[C@@](C)(C(F)(F)F)OC(N)=N1 [Compound I-7] | 47.4% |
| ≥ 20 µM | ≥ 20 µM | 40 µM (≈ 19.3 µg/mL) | > 50 µM | 95.6% | ≥ 20 µM | – | – | – | – | C[C@]1(c2cc(NC(=O)c3ccc(C#N)cn3)ccc2F)N=C(N)O[C@H](CF)[C@@H]1OCC(F)(F)F [Compound I-10] | – |
| ≥ 20 µM | ≥ 20 µM | – | – | – | ≥ 20 µM | 33.9 µM (≈ 14.4 µg/mL) | > 50 µM | – | – | COc1cnc(C(=O)Nc2ccc(F)c([C@@]3(C)N=C(N)O[C@H]([C@H](C)F)[C@@H]3F)c2)cn1 [Compound I-17] | 19.5% |
| ≥ 20 µM | ≥ 20 µM | 39.2 µM (≈ 18 µg/mL) | > 50 µM | – | ≥ 20 µM | – | – | – | – | C[C@H]1[C@@H](C(F)(F)F)OC(N)=N[C@]1(C)c1cc(NC(=O)c2cnc(OCF)cn2)ccc1F [Compound I-30] | 15.1% |
| ≥ 20 µM | ≥ 20 µM | > 50 µM | > 50 µM | – | ≥ 20 µM | – | – | – | – | C[C@]1(c2cc(NC(=O)c3ccc(C#N)cn3)ccc2F)N=C(N)O[C@H]2[C@@H]1OCC2(F)F [Compound I-35] | 41.1% |
| – | – | – | – | 105% | – | > 50 µM | > 50 µM | – | – | C[C@H]1[C@@H](C(F)(F)F)OC(N)=N[C@]1(C)c1cc(NC(=O)c2cnc(OCF)cn2)ccc1F [Compound I-41] | 24.8% |
| ≥ 20 µM | ≥ 20 µM | – | – | – | ≥ 20 µM | > 50 µM | – | >50 µM | – | COc1ccc(C(=O)Nc2ccc(F)c([C@@]3(C)N=C(N)S[C@H](C)[C@@H]3F)c2)nc1 [Compound I-50] | 34.3% |
| ≥ 20 µM | ≥ 10 µM | – | – | – | ≥ 20 µM | > 50 µM | – | >50 µM | – | COc1cnc(C(=O)Nc2ccc(F)c([C@@]3(C)N=C(N)SCC34CC(F)(F)C4)c2)cn1 [Compound I-55] | 39.5% |
| ≥ 20 µM | – | – | – | – | ≥ 20 µM | > 50 µM | – | >50 µM | – | C[C@H]1SC(N)=N[C@](C)(c2cc(NC(=O)c3cnc(OCF)cn3)ccc2F)C12CC(F)(F)C2 [Compound I-62] | 29.6% |
| ≥ 20 µM | ≥ 10 µM | – | – | – | ≥ 20 µM | > 50 µM | – | >50 µM | – | COCC(F)(F)[C@H]1OC(N)=N[C@](C)(c2cc(NC(=O)c3cnc(OCF)cn3)ccc2F)[C@H]1F [Compound I-79] | 7.8% |
| ≥ 20 µM | ≥ 20 µM | – | – | 84.1% | ≥ 20 µM | 42 µM (≈ 17.2 µg/mL) | – | – | > 50 µM | C[C@H]1SC(N)=N[C@](C)(c2cccc(NC(=O)c3cnc(C(F)F)cn3)c2)[C@H]1F [Compound I-106] | – |
